# Earlier results in US6919359B2, “Azabicyclic-substituted-heteroaryl compounds for the treatment of disease” (Pfizer Inc, priority 2001, dated 2005).
# Assays:
# 5HT3R = target: T1, 5HT3R (Homo sapiens, UniProt P46098)
# T1 sequence (P46098 24-478): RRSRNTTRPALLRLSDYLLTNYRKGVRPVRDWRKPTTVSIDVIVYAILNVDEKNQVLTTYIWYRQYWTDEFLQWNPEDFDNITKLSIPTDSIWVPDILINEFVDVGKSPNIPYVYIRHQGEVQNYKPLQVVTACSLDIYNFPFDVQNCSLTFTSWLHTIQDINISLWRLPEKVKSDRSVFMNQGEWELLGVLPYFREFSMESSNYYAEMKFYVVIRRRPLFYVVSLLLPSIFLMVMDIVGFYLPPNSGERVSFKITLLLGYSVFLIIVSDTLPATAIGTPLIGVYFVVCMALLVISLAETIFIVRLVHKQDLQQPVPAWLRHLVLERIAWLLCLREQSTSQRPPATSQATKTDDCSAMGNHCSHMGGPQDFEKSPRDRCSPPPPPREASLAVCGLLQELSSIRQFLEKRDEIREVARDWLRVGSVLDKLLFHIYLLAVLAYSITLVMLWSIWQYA
# α7 nAChR = α7 nAChR (Homo sapiens, UniProt P36544)
# Sequence of α7 nAChR (P36544 23-502): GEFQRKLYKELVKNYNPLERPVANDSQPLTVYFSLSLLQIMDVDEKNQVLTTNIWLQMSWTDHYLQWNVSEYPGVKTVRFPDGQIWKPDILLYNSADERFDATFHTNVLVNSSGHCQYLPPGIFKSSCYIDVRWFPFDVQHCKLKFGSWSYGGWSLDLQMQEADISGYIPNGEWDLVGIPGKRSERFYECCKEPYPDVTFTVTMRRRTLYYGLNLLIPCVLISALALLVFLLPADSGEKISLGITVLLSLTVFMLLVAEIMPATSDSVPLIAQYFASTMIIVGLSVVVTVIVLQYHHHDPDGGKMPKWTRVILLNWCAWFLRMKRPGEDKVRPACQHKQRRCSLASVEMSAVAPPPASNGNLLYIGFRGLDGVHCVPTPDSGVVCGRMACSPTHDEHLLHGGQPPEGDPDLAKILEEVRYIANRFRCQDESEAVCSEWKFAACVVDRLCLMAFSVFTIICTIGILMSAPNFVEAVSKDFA
SMILES,activity at the 5HT3R (5HT3R),activity at the α7 nAChR (α7 nAChR)
COc1ccc(/C=C2\CCCN=C2c2cccnc2)c(OC)c1 [GTS-21],little activity,
Cc1nccn1CC1CCc2c(c3ccccc3n2C)C1=O (centres unmarked) [Ondansetron],,little activity
